Data from US20240101551A1, “CRYSTAL FORM AND SALT FORM OF BROMINE DOMAIN PROTEIN INHIBITOR AND PREPARATION METHOD THEREFOR” (CHIA TAI TIANQING PHARMACEUTICAL GROUP CO., LTD., priority 2020, published 2024).
Several values for one entry are separate records, joined by “and”; a condition that tells them apart may be missing. Equal entries are not always repeated.

Experiments:
Format in all cases: physicochemical
[1] = Study on stability of the crystal form I under influencing factors (Experimental Example 2)
Experimental: In order to evaluate the solid stability of the crystal form I of the present application, the stability of the crystal form I under influencing factors (high temperature, high humidity and light) was investigated. The crystal form I was stored under the high temperature condition (40° C., open (weighing bottle)), the high temperature condition (60° C., open (weighing bottle)), the high humidity condition (room temperature, 75% RH, open (weighing bottle)) and the high humidity condition (room temperature, 92.5% RH, open (weighing bottle) and packaged) for 5 days, 10 days and 30 days, and under the ICH light condition (5500 Lux, 0.9 w/m^2, open (weighing bottle) and packaged) for 5 days and 10 days. The inner packaging material of the packaged sample was a double-layer low-density polyethylene bag, and the outer packaging material is a polyester/aluminum/polyethylene composite bag for medicine packaging. The samples after the storage were determined for properties, related substances (HPLC), crystal form (XRD), water content and content to investigate the influence of high temperature, high humidity and light conditions on the product. The results are shown in Table 13 (“^#” indicates the ICH condition).

[2] = Particle size distribution test after jet milling (light scattering); conditions: for X90 Mean: mean of 3 experiments; for X90: single experiments 1-3
Experimental: The particle size distribution X90 described herein is determined by a light scattering method (Method 3 of Determination of Particle Size and Distribution of General Chapter 0982, Chinese Pharmacopoeia, Volume IV, 2020 Edition).
After jet milling, the crystal form I was tested for the particle size distribution by referring to Method 3 (a light scattering method) of Determination of Particle Size and Distribution of General Chapter 0982, Chinese Pharmacopoeia, Volume IV, 2020 Edition, with the specific steps as follows: 10 mg of the sample was weighed and placed in a laser scattering particle size distribution analyzer for testing (trigger conditions: 10 s, 1%; dispersion pressure: 2.0 bar).

[3] = Study on accelerated stability and long-term stability of the crystal form I
Experimental: The crystal form I was placed under the accelerated condition (40±2° C., 75%±5% RH, and packaged) for 1, 2, 3 and 6 months, and under the long-term condition (25±2° C., 65%±5% RH, and packaged) for 3, 6, 9, 12, 18, 24 and 36 months to investigate its acceleration and long-term stability. The inner packaging material of the packaged sample was a double-layer low-density polyethylene bag, and the outer packaging material is a polyester/aluminum/polyethylene composite bag for medicine packaging. The samples after the storage were determined for properties, related substances (HPLC), crystal form (XRD), water content and content to investigate the stability of the product.

[4] = as above; conditions: long-term, 25° C. ± 2° C., 60% ± 5% RH, packaged
[5] = 75% RH, room temperature, open, 5 days
[6] = 75% RH, room temperature, open, 10 days
[7] = 75% RH, room temperature, open, 30 days
[8] = 92.5% RH, room temperature, open, 5 days
[9] = 92.5% RH, room temperature, open, 10 days
[10] = 92.5% RH, room temperature, open, 30 days
[11] = Light (ICH, 5500 Lux), open, 5 days
[12] = Light (ICH, 5500 Lux), open, 10 days
[13] = accelerated, 40° C. ± 2° C., 75% ± 5% RH, packaged, 1 month
[14] = accelerated, 40° C. ± 2° C., 75% ± 5% RH, packaged, 2 months
[15] = accelerated, 40° C. ± 2° C., 75% ± 5% RH, packaged, 3 months
[16] = accelerated, 40° C. ± 2° C., 75% ± 5% RH, packaged, 6 months
[17] = long-term, 25° C. ± 2° C., 60% ± 5% RH, packaged, 6 months

Question: Which Crystal form change ([1]; 40° C., open, 5 days) does the source give for `Cn1cc(-c2nc(N=S(C)(C)=O)ccc2Oc2ccc(F)cc2F)c2cc[nH]c2c1=O` [crystal form I] here?
Answer: Its Crystal form change is “Unchanged”.

Question: And the Impurity content ([1]; 40° C., open, 5 days)?
Answer: Its Impurity content is 0.06%.

Question: And the Water content ([1]; 40° C., open, 5 days)?
Answer: The Water content was 0.02%.

Question: And the Crystal form change ([1]; 40° C., open, 10 days)?
Answer: The Crystal form change was “Unchanged”.

Question: And the Impurity content ([1]; 40° C., open, 10 days)?
Answer: Its Impurity content is 0.08%.

Question: And the Water content ([1]; 40° C., open, 10 days)?
Answer: Its Water content is 0.01%.

Question: And the Crystal form change ([1]; 40° C., open, 30 days)?
Answer: Its Crystal form change is “Unchanged”.

Question: What about the Impurity content ([1]; 40° C., open, 30 days) of the same molecule?
Answer: The Impurity content was 0.08%.

Question: What about the Water content ([1]; 40° C., open, 30 days) of the same molecule?
Answer: The Water content was 0.02%.

Question: And the Crystal form change ([1]; 60° C., open, 5 days)?
Answer: Its Crystal form change is “Unchanged”.

Question: And the Impurity content ([1]; 60° C., open, 5 days)?
Answer: Its Impurity content is 0.07%.

Question: And the Water content ([1]; 60° C., open, 5 days)?
Answer: The Water content was 0.01%.

Question: And the Crystal form change ([1]; 60° C., open, 10 days)?
Answer: Its Crystal form change is “Unchanged”.

Question: And the Impurity content ([1]; 60° C., open, 10 days)?
Answer: Its Impurity content is 0.08%.

Question: What about the Water content ([1]; 60° C., open, 10 days) of the same molecule?
Answer: Its Water content is 0.01%.

Question: And the Crystal form change ([1]; 60° C., open, 30 days)?
Answer: Its Crystal form change is “Unchanged”.

Question: What about the Impurity content ([1]; 60° C., open, 30 days) of the same molecule?
Answer: The Impurity content was 0.09%.

Question: What about the Water content ([1]; 60° C., open, 30 days) of the same molecule?
Answer: Its Water content is 0.02%.

Question: What about the Crystal form change [1, 5] of the same molecule?
Answer: Its Crystal form change is “Unchanged”.

Question: And the Impurity content [1, 5]?
Answer: Its Impurity content is 0.06%.

Question: What about the Water content [1, 5] of the same molecule?
Answer: Its Water content is 0.02%.

Question: What about the Crystal form change [1, 6] of the same molecule?
Answer: Its Crystal form change is “Unchanged”.

Question: And the Impurity content [1, 6]?
Answer: Its Impurity content is 0.08%.

Question: What about the Water content [1, 6] of the same molecule?
Answer: The Water content was 0.03%.

Question: And the Crystal form change [1, 7]?
Answer: The Crystal form change was “Unchanged”.

Question: And the Impurity content [1, 7]?
Answer: The Impurity content was 0.08%.

Question: What about the Water content [1, 7] of the same molecule?
Answer: Its Water content is 0.04%.

Question: What about the Crystal form change ([1]; 92.5% RH, packaged, 5 days) of the same molecule?
Answer: The Crystal form change was “Unchanged”.

Question: What about the Impurity content ([1]; 92.5% RH, packaged, 5 days) of the same molecule?
Answer: The Impurity content was 0.06%.

Question: What about the Water content ([1]; 92.5% RH, packaged, 5 days) of the same molecule?
Answer: The Water content was 0.02%.

Question: What about the Crystal form change ([1]; 92.5% RH, packaged, 10 days) of the same molecule?
Answer: Its Crystal form change is “Unchanged”.

Question: What about the Impurity content ([1]; 92.5% RH, packaged, 10 days) of the same molecule?
Answer: Its Impurity content is 0.08%.

Question: And the Water content ([1]; 92.5% RH, packaged, 10 days)?
Answer: The Water content was 0.01%.

Question: And the Crystal form change ([1]; 92.5% RH, packaged, 30 days)?
Answer: Its Crystal form change is “Unchanged”.

Question: What about the Impurity content ([1]; 92.5% RH, packaged, 30 days) of the same molecule?
Answer: The Impurity content was 0.08%.

Question: What about the Water content ([1]; 92.5% RH, packaged, 30 days) of the same molecule?
Answer: The Water content was 0.03%.

Question: And the Crystal form change [1, 8]?
Answer: The Crystal form change was “Unchanged”.

Question: And the Impurity content [1, 8]?
Answer: The Impurity content was 0.06%.

Question: And the Water content [1, 8]?
Answer: Its Water content is 0.03%.

Question: And the Crystal form change [1, 9]?
Answer: The Crystal form change was “Unchanged”.

Question: What about the Impurity content [1, 9] of the same molecule?
Answer: Its Impurity content is 0.08%.

Question: What about the Water content [1, 9] of the same molecule?
Answer: The Water content was 0.03%.

Question: And the Crystal form change [1, 10]?
Answer: Its Crystal form change is “Unchanged”.

Question: What about the Impurity content [1, 10] of the same molecule?
Answer: The Impurity content was 0.08%.

Question: What about the Water content [1, 10] of the same molecule?
Answer: The Water content was 0.06%.

Question: And the Crystal form change ([1]; Light (ICH), packaged, 5 days)?
Answer: The Crystal form change was “Unchanged”.

Question: What about the Impurity content ([1]; Light (ICH), packaged, 5 days) of the same molecule?
Answer: The Impurity content was 0.06%.

Question: And the Water content ([1]; Light (ICH), packaged, 5 days)?
Answer: Its Water content is 0.02%.

Question: What about the Crystal form change ([1]; Light (ICH), packaged, 10 days) of the same molecule?
Answer: Its Crystal form change is “Unchanged”.

Question: What about the Impurity content ([1]; Light (ICH), packaged, 10 days) of the same molecule?
Answer: The Impurity content was 0.08%.

Question: And the Water content ([1]; Light (ICH), packaged, 10 days)?
Answer: Its Water content is 0.02%.

Question: What about the Crystal form change [1, 11] of the same molecule?
Answer: The Crystal form change was “Unchanged”.

Question: And the Impurity content [1, 11]?
Answer: The Impurity content was 0.06%.

Question: What about the Water content [1, 11] of the same molecule?
Answer: Its Water content is 0.01%.

Question: What about the Crystal form change [1, 12] of the same molecule?
Answer: Its Crystal form change is “Unchanged”.

Question: And the Impurity content [1, 12]?
Answer: The Impurity content was 0.08%.

Question: What about the Water content [1, 12] of the same molecule?
Answer: Its Water content is 0.02%.

Question: And the Impurity content ([1]; starting crystal form I)?
Answer: Its Impurity content is 0.05%.

Question: And the Water content ([1]; starting crystal form I)?
Answer: The Water content was 0.02%.

Question: What about the “X90 Mean” value ([2]; milling pressure 0.1 MPa) of the same molecule?
Answer: The value was 11.50 μm.

Question: What about the X90 ([2]; milling pressure 0.1 MPa) of the same molecule?
Answer: The X90 was 11.54 μm and 11.46 μm and 11.50 μm.

Question: And the “X90 Mean” value ([2]; milling pressure 0.3 MPa)?
Answer: The value was 5.82 μm.

Question: What about the X90 ([2]; milling pressure 0.3 MPa) of the same molecule?
Answer: The X90 was 5.78 μm and 6.02 μm and 5.67 μm.

Question: And the Crystal form change [3, 13]?
Answer: The Crystal form change was “Unchanged”.

Question: And the Impurity content [3, 13]?
Answer: Its Impurity content is 0.08%.

Question: And the Water content [3, 13]?
Answer: Its Water content is 0.03%.

Question: What about the Crystal form change [3, 14] of the same molecule?
Answer: Its Crystal form change is “Unchanged”.

Question: And the Impurity content [3, 14]?
Answer: The Impurity content was 0.08%.

Question: And the Water content [3, 14]?
Answer: Its Water content is 0.03%.

Question: And the Crystal form change [3, 15]?
Answer: The Crystal form change was “Unchanged”.

Question: What about the Impurity content [3, 15] of the same molecule?
Answer: Its Impurity content is 0.08%.

Question: And the Water content [3, 15]?
Answer: Its Water content is 0.03%.

Question: And the Crystal form change [3, 16]?
Answer: The Crystal form change was “Unchanged”.

Question: What about the Impurity content [3, 16] of the same molecule?
Answer: Its Impurity content is 0.08%.

Question: And the Water content [3, 16]?
Answer: The Water content was 0.03%.

Question: What about the “Stability (conclusion)” value ([3]; influencing factors, accelerated and long-term conditions) of the same molecule?
Answer: The value was “good stability”.

Question: And the Crystal form change ([3]; long-term, 25° C. ± 2° C., 60% ± 5% RH, packaged, 3 months)?
Answer: Its Crystal form change is “Unchanged”.

Question: What about the Crystal form change [3, 17] of the same molecule?
Answer: The Crystal form change was “Unchanged”.

Question: What about the Impurity content [3, 17] of the same molecule?
Answer: Its Impurity content is 0.08%.

Question: And the Impurity content ([3]; starting crystal form I)?
Answer: Its Impurity content is 0.05%.

Question: And the Water content ([3]; starting crystal form I)?
Answer: Its Water content is 0.02%.

Question: What about the Impurity content ([4]; 3 months) of the same molecule?
Answer: The Impurity content was 0.08%.

Question: What about the Water content ([4]; 3 months) of the same molecule?
Answer: The Water content was 0.03%.

Question: What about the Water content ([4]; 6 months) of the same molecule?
Answer: Its Water content is 0.04%.
